Measurements reported in PubChem BioAssay AID256 (DTP/NCI, 2004).
“And” between values parts separate entries of the source, which are not always exact repeats. Equal values may be shown once. Toxic doses and inconclusive results are not listed.

Test system: CD2F1 mice, L1210 leukemia ip, survival T/C
Experiment: NCI In Vivo Anticancer Drug Screen. Data for tumor model L1210 Leukemia (intraperitoneal) in CD2F1 (CDF1) mice
Conditions: higher = longer survival
Procedure, shortened: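 Ratio T/C, where T is the treated-group value and C the vehicle-dosed control value, from mice implanted with a transplantable tumor.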

[1] = endpoint: mean survival time, dose: 100.0 mg/kg/injection, schedule: Q01DX009 (ip), vehicle: saline with Tween-80
[2] = endpoint: mean survival time, dose: 200.0 mg/kg/injection, schedule: Q01DX009 (ip), vehicle: saline with Tween-80
[3] = endpoint: mean survival time, dose: 400.0 mg/kg/injection, schedule: Q01DX009 (ip), vehicle: saline with Tween-80

With `O=C(O)c1ccc(C(=O)O)c(C(=O)O)c1.[NH-]C1CCCCC1[NH-].[Pt+2]` the T/C (endpoint: mean survival time, dose: 0.39 mg/kg/injection, schedule: Q01DX009 (ip), vehicle: sodium bicarbonate) was 123 % of control, the T/C (endpoint: mean survival time, dose: 0.39 mg/kg/injection, schedule: Q04DX003 (ip), vehicle: other) was 115 % of control and the T/C (endpoint: mean survival time, dose: 0.78 mg/kg/injection, schedule: Q01DX009 (ip), vehicle: sodium bicarbonate) was 174 % of control and 200 % of control. The T/C (endpoint: mean survival time, dose: 0.78 mg/kg/injection, schedule: Q04DX003 (ip), vehicle: other) was 120 % of control, the T/C (endpoint: mean survival time, dose: 0.78 mg/kg/injection, schedule: Q04DX003 (ip), vehicle: sodium bicarbonate) was 119 % of control and the T/C (endpoint: mean survival time, dose: 1.56 mg/kg/injection, schedule: Q01DX009 (ip), vehicle: sodium bicarbonate) was 172 % of control and 325 % of control. For the same compound, the T/C (endpoint: mean survival time, dose: 1.56 mg/kg/injection, schedule: Q04DX003 (ip), vehicle: sodium bicarbonate) was 119 % of control, the T/C (endpoint: mean survival time, dose: 3.12 mg/kg/injection, schedule: Q01DX009 (ip), vehicle: sodium bicarbonate) was 155 % of control and 196 % of control and 251 % of control and the T/C (endpoint: mean survival time, dose: 3.13 mg/kg/injection, schedule: Q04DX003 (ip), vehicle: other) was 183 % of control. The T/C (endpoint: mean survival time, dose: 6.25 mg/kg/injection, schedule: Q01DX009 (ip), vehicle: sodium bicarbonate) was 190 % of control, the T/C (endpoint: mean survival time, dose: 6.25 mg/kg/injection, schedule: Q04DX003 (ip), vehicle: other) was 240 % of control and 263 % of control and the T/C (endpoint: mean survival time, dose: 6.25 mg/kg/injection, schedule: Q04DX003 (ip), vehicle: sodium bicarbonate) was 158 % of control. For the same compound, the T/C (endpoint: mean survival time, dose: 8.0 mg/kg/injection, schedule: Q01DX005 (oral), vehicle: sodium bicarbonate) was 113 % of control and 120 % of control and 101 % of control, the T/C (endpoint: mean survival time, dose: 12.5 mg/kg/injection, schedule: Q01DX009 (ip), vehicle: sodium bicarbonate) was 227 % of control and 97 % of control and the T/C (endpoint: mean survival time, dose: 12.5 mg/kg/injection, schedule: Q04DX003 (ip), vehicle: other) was 273 % of control and 291 % of control. The T/C (endpoint: mean survival time, dose: 12.5 mg/kg/injection, schedule: Q04DX003 (ip), vehicle: sodium bicarbonate) was 247 % of control, the T/C (endpoint: mean survival time, dose: 16.0 mg/kg/injection, schedule: Q01DX005 (oral), vehicle: sodium bicarbonate) was 100 % of control and 105 % of control and the T/C (endpoint: mean survival time, dose: 25.0 mg/kg/injection, schedule: Q04DX003 (ip), vehicle: other) was 328 % of control and 444 % of control. For the same compound, the T/C (endpoint: mean survival time, dose: 25.0 mg/kg/injection, schedule: Q04DX003 (ip), vehicle: sodium bicarbonate) was 186 % of control, the T/C (endpoint: mean survival time, dose: 32.0 mg/kg/injection, schedule: Q01DX005 (oral), vehicle: sodium bicarbonate) was 108 % of control and the T/C (endpoint: mean survival time, dose: 64.0 mg/kg/injection, schedule: Q01DX005 (oral), vehicle: sodium bicarbonate) was 108 % of control. The T/C (endpoint: mean survival time, dose: 128.0 mg/kg/injection, schedule: Q01DX005 (oral), vehicle: sodium bicarbonate) was 113 % of control and 103 % of control, the T/C (endpoint: mean survival time, dose: 256.0 mg/kg/injection, schedule: Q01DX005 (oral), vehicle: sodium bicarbonate) was 116 % of control and 121 % of control and 111 % of control and the T/C (endpoint: median survival time, dose: 0.58 mg/kg/injection, schedule: Q01DX009 (ip), vehicle: sodium bicarbonate) was 156 % of control. For the same compound, the T/C (endpoint: median survival time, dose: 0.87 mg/kg/injection, schedule: Q01DX009 (ip), vehicle: water) was 101 % of control and 112 % of control, the T/C (endpoint: median survival time, dose: 1.2 mg/kg/injection, schedule: Q01DX009 (ip), vehicle: sodium bicarbonate) was 361 % of control and the T/C (endpoint: median survival time, dose: 1.3 mg/kg/injection, schedule: Q01DX009 (ip), vehicle: water) was 115 % of control and 107 % of control. The T/C (endpoint: median survival time, dose: 1.8 mg/kg/injection, schedule: Q01DX009 (ip), vehicle: sodium bicarbonate) was 313 % of control, the T/C (endpoint: median survival time, dose: 2.0 mg/kg/injection, schedule: Q01DX009 (ip), vehicle: water) was 122 % of control and 101 % of control and the T/C (endpoint: median survival time, dose: 2.7 mg/kg/injection, schedule: Q01DX009 (ip), vehicle: sodium bicarbonate) was 240 % of control. The T/C (endpoint: median survival time, dose: 3.0 mg/kg/injection, schedule: Q01DX009 (ip), vehicle: sodium bicarbonate) was 357 % of control, the T/C (endpoint: median survival time, dose: 3.13 mg/kg/injection, schedule: Q04DX003 (ip), vehicle: other) was 154 % of control and 280 % of control and the T/C (endpoint: median survival time, dose: 3.13 mg/kg/injection, schedule: Q04DX003 (ip), vehicle: sodium bicarbonate) was 174 % of control. The T/C (endpoint: median survival time, dose: 3.5 mg/kg/injection, schedule: Q01DX009 (ip), vehicle: water) was 107 % of control, the T/C (endpoint: median survival time, dose: 4.0 mg/kg/injection, schedule: Q01DX009 (ip), vehicle: sodium bicarbonate) was 166 % of control and the T/C (endpoint: median survival time, dose: 4.5 mg/kg/injection, schedule: Q01DX009 (ip), vehicle: sodium bicarbonate) was 237 % of control. For the same compound, the T/C (endpoint: median survival time, dose: 5.0 mg/kg/injection, schedule: Q04DX003 (ip), vehicle: sodium bicarbonate) was 176 % of control and 186 % of control and 195 % of control, the T/C (endpoint: median survival time, dose: 5.24 mg/kg/injection, schedule: Q04DX003 (ip), vehicle: sodium bicarbonate) was 158 % of control and the T/C (endpoint: median survival time, dose: 5.3 mg/kg/injection, schedule: Q01DX009 (ip), vehicle: sodium bicarbonate) was 182 % of control. The T/C (endpoint: median survival time, dose: 6.25 mg/kg/injection, schedule: Q04DX003 (ip), vehicle: other) was 202 % of control and 313 % of control, the T/C (endpoint: median survival time, dose: 6.25 mg/kg/injection, schedule: Q04DX003 (ip), vehicle: saline) was 265 % of control and the T/C (endpoint: median survival time, dose: 6.25 mg/kg/injection, schedule: Q04DX003 (ip), vehicle: sodium bicarbonate) was 154 % of control and 348 % of control. The T/C (endpoint: median survival time, dose: 7.78 mg/kg/injection, schedule: Q04DX003 (ip), vehicle: sodium bicarbonate) was 198 % of control, the T/C (endpoint: median survival time, dose: 8.0 mg/kg/injection, schedule: Q01DX009 (ip), vehicle: water) was 180 % of control and the T/C (endpoint: median survival time, dose: 8.3 mg/kg/injection, schedule: Q01DX009 (ip), vehicle: water) was 277 % of control and 108 % of control. The T/C (endpoint: median survival time, dose: 10.0 mg/kg/injection, schedule: Q04DX003 (ip), vehicle: sodium bicarbonate) was 231 % of control and 247 % of control and 430 % of control, the T/C (endpoint: median survival time, dose: 11.81 mg/kg/injection, schedule: Q04DX003 (ip), vehicle: sodium bicarbonate) was 295 % of control and the T/C (endpoint: median survival time, dose: 12.0 mg/kg/injection, schedule: Q01DX009 (ip), vehicle: water) was 298 % of control. For the same compound, the T/C (endpoint: median survival time, dose: 12.5 mg/kg/injection, schedule: Q04DX003 (ip), vehicle: other) was 202 % of control, the T/C (endpoint: median survival time, dose: 12.5 mg/kg/injection, schedule: Q04DX003 (ip), vehicle: saline) was 361 % of control and the T/C (endpoint: median survival time, dose: 12.5 mg/kg/injection, schedule: Q04DX003 (ip), vehicle: sodium bicarbonate) was 309 % of control and 348 % of control. The T/C (endpoint: median survival time, dose: 13.0 mg/kg/injection, schedule: Q04DX003 (ip), vehicle: sodium bicarbonate) was 231 % of control, the T/C (endpoint: median survival time, dose: 16.0 mg/kg/injection, schedule: Q01DX009 (ip), vehicle: water) was 240 % of control and the T/C (endpoint: median survival time, dose: 17.74 mg/kg/injection, schedule: Q04DX003 (ip), vehicle: sodium bicarbonate) was 214 % of control. For the same compound, the T/C (endpoint: median survival time, dose: 20.0 mg/kg/injection, schedule: Q01DX001 (ip), vehicle: sodium bicarbonate) was 174 % of control, the T/C (endpoint: median survival time, dose: 25.0 mg/kg/injection, schedule: Q04DX003 (ip), vehicle: saline) was 361 % of control and the T/C (endpoint: median survival time, dose: 25.0 mg/kg/injection, schedule: Q04DX003 (ip), vehicle: sodium bicarbonate) was 357 % of control. For the same compound, the T/C (endpoint: median survival time, dose: 26.64 mg/kg/injection, schedule: Q04DX003 (ip), vehicle: sodium bicarbonate) was 345 % of control, the T/C (endpoint: median survival time, dose: 30.0 mg/kg/injection, schedule: Q01DX001 (ip), vehicle: sodium bicarbonate) was 170 % of control and 175 % of control and 333 % of control and the T/C (endpoint: median survival time, dose: 30.0 mg/kg/injection, schedule: Q04DX003 (ip), vehicle: sodium bicarbonate) was 323 % of control. The T/C (endpoint: median survival time, dose: 40.0 mg/kg/injection, schedule: Q01DX001 (ip), vehicle: sodium bicarbonate) was 198 % of control and 714 % of control, the T/C (endpoint: median survival time, dose: 50.0 mg/kg/injection, schedule: Q01DX001 (ip), vehicle: sodium bicarbonate) was 210 % of control and the T/C (endpoint: median survival time, dose: 50.0 mg/kg/injection, schedule: Q04DX003 (ip), vehicle: sodium bicarbonate) was 345 % of control. For the same compound, the T/C (endpoint: median survival time, dose: 64.0 mg/kg/injection, schedule: Q01DX009 (ip), vehicle: water) was 89 % of control.

In the case of `COc1ccc2cc(CC(=O)c3ccccc3)ccc2c1`, the T/C [1] is reported as 100 % of control, the T/C [2] is reported as 96 % of control and the T/C [3] is reported as 90 % of control.

`Cc1cc2ccc(OC(=O)c3ccc(N=C(N)N)cc3)cc2oc1=O` was tested, and the T/C [1] was 91 % of control, the T/C [2] was 91 % of control and the T/C [3] was 86 % of control.

In the case of `CC(=O)NC1C(OC(C)=O)OC(COC(c2ccccc2)(c2ccccc2)c2ccccc2)C(O)C1OC(C)=O` (stereo unspecified), the T/C (endpoint: mean survival time, dose: 12.5 mg/kg/injection, schedule: Q04DX002 (ip), vehicle: saline with Tween-80) is reported as 93 % of control, the T/C (endpoint: mean survival time, dose: 12.5 mg/kg/injection, schedule: Q04DX003 (ip), vehicle: saline with Tween-80) is reported as 103 % of control and the T/C (endpoint: mean survival time, dose: 25.0 mg/kg/injection, schedule: Q04DX003 (ip), vehicle: saline with Tween-80) is reported as 95 % of control. For the same compound, the T/C (endpoint: mean survival time, dose: 50.0 mg/kg/injection, schedule: Q01DX001 (ip), vehicle: saline with Tween-80) was 88 % of control, the T/C (endpoint: mean survival time, dose: 50.0 mg/kg/injection, schedule: Q04DX002 (ip), vehicle: saline with Tween-80) was 91 % of control and the T/C (endpoint: mean survival time, dose: 50.0 mg/kg/injection, schedule: Q04DX003 (ip), vehicle: saline with Tween-80) was 87 % of control. For the same compound, the T/C (endpoint: mean survival time, dose: 100.0 mg/kg/injection, schedule: Q01DX001 (ip), vehicle: saline with Tween-80) was 87 % of control, the T/C (endpoint: mean survival time, dose: 100.0 mg/kg/injection, schedule: Q04DX002 (ip), vehicle: saline with Tween-80) was 88 % of control and the T/C (endpoint: mean survival time, dose: 100.0 mg/kg/injection, schedule: Q04DX003 (ip), vehicle: saline with Tween-80) was 93 % of control. The T/C (endpoint: mean survival time, dose: 200.0 mg/kg/injection, schedule: Q01DX001 (ip), vehicle: saline with Tween-80) was 88 % of control and the T/C (endpoint: mean survival time, dose: 400.0 mg/kg/injection, schedule: Q01DX001 (ip), vehicle: saline with Tween-80) was 90 % of control.
